How the values were obtained:
rice = assay: Test B flood test rice; format: in vivo, Oryza sativa
How it was run: (§1)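 Each value is a visual injury score relative to controls, with 10 meaning complete control and 0 no effect. Evaluation took place twelve to sixteen days after the 2-leaf-stage plants were treated and kept in the greenhouse.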

velvetleaf = assay: Test B pre/postemergence velvetleaf; format: in vivo, Abutilon theophrasti
How it was run: (§2)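 Herbicidal effect was estimated by eye on a ten-point control scale after plants spent twelve to sixteen days in a greenhouse following soil or foliar treatment. Foliar sprays targeted plants at one to four leaves; all doses were formulated in a non-phytotoxic solvent with surfactant.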

wild oat = assay: Test B pre/postemergence wild oat; format: in vivo, Avena fatua
How it was run: as §2

blackgrass = assay: Test B pre/postemergence blackgrass; format: in vivo, Alopecurus myosuroides
How it was run: as §2

corn = assay: Test B pre/postemergence corn; format: in vivo, Zea mays
How it was run: as §2

pigweed = assay: Test B pre/postemergence pigweed; format: in vivo, Amaranthus retroflexus
How it was run: as §2

surinam grass = assay: Test B pre/postemergence surinam grass; format: in vivo, Brachiaria decumbens
How it was run: as §2

duck salad = assay: Test B flood test duck salad; format: in vivo, Heteranthera limosa
How it was run: as §1

morningglory = assay: Test B pre/postemergence morningglory; format: in vivo, Ipomoea hederacea
How it was run: as §2

purple nutsedge = assay: Test B pre/postemergence purple nutsedge; format: in vivo, Cyperus rotundus
How it was run: as §2

soybean = assay: Test B pre/postemergence soybean; format: in vivo, Glycine max
How it was run: as §2

giant foxtail = assay: Test B pre/postemergence giant foxtail; format: in vivo, Setaria faberii
How it was run: as §2

wheat = assay: Test B pre/postemergence wheat; format: in vivo, Triticum aestivum
How it was run: as §2

crabgrass = assay: Test B pre/postemergence crabgrass; format: in vivo, Digitaria sanguinalis
How it was run: as §2

rape = assay: Test B pre/postemergence rape; format: in vivo, Brassica napus
How it was run: as §2

[1] = Rate 62 g/ha, flood test species, Pre-emergence, visual evaluation after twelve to sixteen days
[2] = Rate 125 g/ha, under heading Pre-emergence, flood test species, visual evaluation after twelve to sixteen days
[3] = Rate 250 g/ha, Pre-emergence (flood test species), scale 0 to 10, 0 is no effect, 10 is complete control
[4] = Rate 500 g/ha, Pre-emergence, flood test species, scale 0 to 10 (0 no effect, 10 complete control)
[5] = Postemergence, Rate 250 g/ha, scale 0 to 10
[6] = Postemergence, Rate 500 g/ha, scale of 0 to 10 where 0 is no effect and 10 is complete control
[7] = Preemergence, Rate 62 g/ha, scale of 0 to 10 where 0 is no effect and 10 is complete control
[8] = Preemergence, Rate 125 g/ha, scale of 0 to 10 where 0 is no effect and 10 is complete control
[9] = Preemergence, Rate 250 g/ha, scale 0 to 10, 0 is no effect, 10 is complete control
[10] = Preemergence, Rate 500 g/ha, scale 0 to 10, 0 is no effect, 10 is complete control
[11] = Rate 62 g/ha, Postemergence, scale 0 to 10 (0 no effect, 10 complete control)
[12] = Rate 125 g/ha, Postemergence, scale 0 to 10, 0 is no effect, 10 is complete control

COC(C)n1c(=O)on(C(=O)N(c2ccccc2)C(C)C)c1=O (stereo not shown) [Compound 441]
0: Plant response rating, Rice (0 to 10 scale, 0 is no effect, 10 is complete control) (rice; [1]) | Rice plant response rating (0 to 10 scale, 0 is no effect, 10 is complete control) (rice; [2]) | Rice plant response rating (rice; [3]) | Rice plant response rating (rice; [4]) | Velvetleaf plant response rating (velvetleaf; [5]) | Velvetleaf plant response rating (velvetleaf; [6]) | Plant response rating, Velvetleaf (velvetleaf; [7]) | Plant response rating, Velvetleaf (velvetleaf; [8]) | Velvetleaf plant response rating (velvetleaf; [9]) | Velvetleaf plant response rating (velvetleaf; [10]) | Velvetleaf plant response rating (velvetleaf; [11]) | Velvetleaf plant response rating (velvetleaf; [12]) | Wild oats plant response rating (wild oat; [5]) | Wild oats plant response rating (wild oat; [6]) | Plant response rating, Wild oats (wild oat; [7]) | Plant response rating, Wild oats (wild oat; [8]) | Wild oats plant response rating (wild oat; [9]) | Wild oats plant response rating (wild oat; [10]) | Wild oats plant response rating (wild oat; [11]) | Wild oats plant response rating (wild oat; [12]) | Blackgrass plant response rating (blackgrass; [5]) | Blackgrass plant response rating (blackgrass; [6]) | Plant response rating, Blackgrass (blackgrass; [7]) | Plant response rating, Blackgrass (blackgrass; [8]) | Blackgrass plant response rating (blackgrass; [9]) | Blackgrass plant response rating (blackgrass; [10]) | Blackgrass plant response rating (blackgrass; [11]) | Blackgrass plant response rating (blackgrass; [12]) | Corn plant response rating (corn; [5]) | Corn plant response rating (corn; [6]) | Plant response rating, Corn (corn; [7]) | Plant response rating, Corn (corn; [8]) | Corn plant response rating (corn; [9]) | Corn plant response rating (corn; [10]) | Corn plant response rating (corn; [11]) | Corn plant response rating (corn; [12]) | Redroot pigweed plant response rating (pigweed; [5]) | Redroot pigweed plant response rating (pigweed; [6]) | Plant response rating, Redroot pigweed (pigweed; [7]) | Plant response rating, Redroot pigweed (pigweed; [8]) | Redroot pigweed plant response rating (pigweed; [9]) | Redroot pigweed plant response rating (pigweed; [10]) | Redroot pigweed plant response rating (pigweed; [11]) | Redroot pigweed plant response rating (pigweed; [12]) | B. signalgrass plant response rating (surinam grass; Postemergence, Rate 250 g/ha, scale 0 to 10, 0 no effect, 10 complete control) | B. signalgrass plant response rating (surinam grass; [6]) | Plant response rating, B. signalgrass (surinam grass; [7]) | Plant response rating, B. signalgrass (surinam grass; [8]) | B. signalgrass plant response rating (surinam grass; [9]) | B. signalgrass plant response rating (surinam grass; [10]) | B. signalgrass plant response rating (surinam grass; [11]) | B. signalgrass plant response rating (surinam grass; [12]) | Plant response rating, Ducksalad (0 to 10 scale, 0 is no effect, 10 is complete control) (duck salad; [1]) | Ducksalad plant response rating (0 to 10 scale, 0 is no effect, 10 is complete control) (duck salad; [2]) | Ducksalad plant response rating (duck salad; [3]) | Ducksalad plant response rating (duck salad; [4]) | Morningglory plant response rating (morningglory; [5]) | Morningglory plant response rating (morningglory; [6]) | Plant response rating, Morningglory (morningglory; [7]) | Plant response rating, Morningglory (morningglory; [8]) | Morningglory plant response rating (morningglory; [9]) | Morningglory plant response rating (morningglory; [10]) | Morningglory plant response rating (morningglory; [11]) | Morningglory plant response rating (morningglory; [12]) | Nutsedge plant response rating (purple nutsedge; [5]) | Nutsedge plant response rating (purple nutsedge; [6]) | Plant response rating, Nutsedge (purple nutsedge; [7]) | Plant response rating, Nutsedge (purple nutsedge; [8]) | Nutsedge plant response rating (purple nutsedge; [9]) | Nutsedge plant response rating (purple nutsedge; [10]) | Nutsedge plant response rating (purple nutsedge; [11]) | Nutsedge plant response rating (purple nutsedge; [12]) | Soybean plant response rating (soybean; [5]) | Soybean plant response rating (soybean; [6]) | Plant response rating, Soybean (soybean; [7]) | Plant response rating, Soybean (soybean; [8]) | Soybean plant response rating (soybean; [9]) | Soybean plant response rating (soybean; [10]) | Soybean plant response rating (soybean; [11]) | Soybean plant response rating (soybean; [12]) | Giant foxtail plant response rating (giant foxtail; [5]) | Giant foxtail plant response rating (giant foxtail; [6]) | Plant response rating, Giant foxtail (giant foxtail; [7]) | Plant response rating, Giant foxtail (giant foxtail; [8]) | Giant foxtail plant response rating (giant foxtail; [9]) | Giant foxtail plant response rating (giant foxtail; [10]) | Giant foxtail plant response rating (giant foxtail; [11]) | Giant foxtail plant response rating (giant foxtail; [12]) | Wheat plant response rating (wheat; [5]) | Wheat plant response rating (wheat; [6]) | Plant response rating, Wheat (wheat; [7]) | Plant response rating, Wheat (wheat; [8]) | Wheat plant response rating (wheat; [9]) | Wheat plant response rating (wheat; [10]) | Wheat plant response rating (wheat; [11]) | Wheat plant response rating (wheat; [12]) | Crabgrass plant response rating (crabgrass; [5]) | Crabgrass plant response rating (crabgrass; [6]) | Plant response rating, Crabgrass (crabgrass; [7]) | Plant response rating, Crabgrass (crabgrass; [8]) | Crabgrass plant response rating (crabgrass; [9]) | Crabgrass plant response rating (crabgrass; [10]) | Crabgrass plant response rating (crabgrass; [11]) | Crabgrass plant response rating (crabgrass; [12]) | Rape plant response rating (rape; [5]) | Rape plant response rating (rape; [6]) | Plant response rating, Rape (rape; [7]) | Plant response rating, Rape (rape; [8]) | Rape plant response rating (rape; [9]) | Rape plant response rating (rape; [10]) | Rape plant response rating (rape; [11]) | Rape plant response rating (rape; [12])
